From patent US7947718B2, “Isoxazole compounds as histamine H3 modulators” (Janssen Pharmaceutica NV, priority 2004, dated 2011)

Each compound was assayed against T1, human histamine H3 receptor (Homo sapiens, UniProt Q9Y5N1) (assay: [3H]-N-Methylhistamine binding). Details: membranes of H3 receptor-expressing SK-N-MC cells; 0.8 nM [3H]-N-methylhistamine, 60 min at 25° C.
T1 construct: expressed in transfected cells; membranes were used
Description: Cells were grown to about 70% to 80% confluence and removed from the plate with trypsin and pelleted in a clinical centrifuge. […] One μg supercoiled H3 receptor cDNA was added to the cells and mixed gently. The voltage for the electroporation was set at 0.25 kV and the capacitance was set at 960 μF. After electroporation the cells were diluted with 10 mL of complete media and were plated onto four 10 cm dishes at the following ratios: 1:20, 1:10, 1:5, and 1:2. […] Colonies that survived selection were grown and tested. SK-N-MC cells were used because they give efficient coupling for inhibition of adenylate cyclase. The clones that gave the most robust inhibition of adenylate cyclase in response to histamine were used for further study.
Cell pellets from histamine H3 receptor-expressing SK-N-MC cells were homogenized in 50 mM TrisHCl/0.5 mM EDTA. Supernatants from an 800 g spin were collected and were recentrifuged at 30,000 g for 30 min. Pellets were re-homogenized in 50 mM Tris/5 mM EDTA (pH 7.4). Membranes were incubated with 0.8 nM [^3H]-N-methylhistamine plus/minus test compounds for 60 min at 25° C. and were harvested by rapid filtration over GF/C glass fiber filters (pretreated with 0.3% polyethylenimine) followed by four washes with buffer. Filters were added to 5 mL of scintillation cocktail, and the signal was then counted on a liquid scintillation counter.

T1 sequence (Q9Y5N1 whole entry): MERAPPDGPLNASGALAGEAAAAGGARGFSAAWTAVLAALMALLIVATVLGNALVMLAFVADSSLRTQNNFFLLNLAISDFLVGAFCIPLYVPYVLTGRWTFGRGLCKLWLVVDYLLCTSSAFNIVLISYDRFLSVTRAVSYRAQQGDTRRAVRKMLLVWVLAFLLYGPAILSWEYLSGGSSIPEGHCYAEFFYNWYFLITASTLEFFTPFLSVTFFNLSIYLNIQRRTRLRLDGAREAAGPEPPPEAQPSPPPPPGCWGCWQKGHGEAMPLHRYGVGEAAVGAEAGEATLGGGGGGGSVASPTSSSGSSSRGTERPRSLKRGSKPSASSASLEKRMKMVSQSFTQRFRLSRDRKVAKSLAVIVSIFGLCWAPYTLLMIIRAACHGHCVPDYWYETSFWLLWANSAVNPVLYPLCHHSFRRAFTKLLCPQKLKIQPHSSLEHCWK

Compared with CCOC(=O)N1CCN(c2ccc(C(=O)N3CCN(C(C)C)CC3)cn2)CC1 [Example 14, 4-[5-(4-Isopropyl-piperazine-1-carbonyl)-pyridin-2-yl]-piperazine-1-carboxylic acid ethyl ester], CC(C)N1CCN(C(=O)c2ccc(N3CCN(C)CC3)nc2)CC1 [Example 15, (4-Isopropyl-piperazin-1-yl)-[6-(4-methyl-piperazin-1-yl)-pyridin-3-yl]-methanone] is 26-fold lower in Ki: 79 nM for the first, 3 nM for the second.

First: CCN(CC)CCN(C)c1ccc(C(=O)N2CCN(C(C)C)CC2)cn1 [Example 12, {6-[(2-Diethylamino-ethyl)-methyl-amino]-pyridin-3-yl}-(4-isopropyl-piperazin-1-yl)-methanone]
Second: CC(C)N1CCN(C(=O)c2ccc(NCCc3ccccn3)nc2)CC1 [Example 11, (4-Isopropyl-piperazin-1-yl)-[6-(2-pyridin-2-yl-ethylamino)-pyridin-3-yl]-methanone]
The Ki of the first is 28-fold lower: 3 nM for the first, 84 nM for the second. The first binds more tightly here.

Compared with C(#Cc1cccc(CN2CCOCC2)n1)CCN1CCCCC1 [Example 21, 4-[6-(4-Piperidin-1-yl-but-1-ynyl)-pyridin-2-ylmethyl]-morpholine], C(#Cc1cccc(CN2CCCCC2)n1)CCN1CCCCC1 [Example 20, 2-(4-Piperidin-1-yl-but-1-ynyl)-6-piperidin-1-ylmethyl-pyridine] is 4.8-fold lower in Ki: 38 nM for the first, 8 nM for the second. The second binds more tightly here.

Compared with CC(C)N1CCN(C(=O)c2ccc(NCCN3CCOCC3)nc2)CC1 [Example 10, (4-Isopropyl-piperazin-1-yl)-[6-(2-morpholin-4-yl-ethylamino)-pyridin-3-yl]-methanone], CC(C)N1CCN(C(=O)c2ccc(NCCN3CCCCC3)nc2)CC1 [Example 9, (4-Isopropyl-piperazin-1-yl)-[6-(2-piperidin-1-yl-ethylamino)-pyridin-3-yl]-methanone] is 7-fold lower in Ki: 14 nM for the first, 2 nM for the second. The second binds more tightly here.

First: C(#Cc1cncc(CN2CCCCC2)c1)CCN1CCCCC1 [Example 18, 3-(4-Piperidin-1-yl-but-1-ynyl)-5-piperidin-1-ylmethyl-pyridine]
Second: C(#Cc1cncc(CN2CCOCC2)c1)CCN1CCCCC1 [Example 19, 4-[5-(4-Piperidin-1-yl-but-1-ynyl)-pyridin-3-ylmethyl]-morpholine]
The Ki of the first is 7.5-fold lower: 2 nM for the first, 15 nM for the second.

Compared with C(#Cc1ccc(CN2CCCCC2)cn1)CCN1CCCCC1 [Example 8, 2-(4-Piperidin-1-yl-but-1-ynyl)-5-piperidin-1-ylmethyl-pyridine], COCCNCc1cccc(C#CCCN2CCCCC2)n1 [Example 22, (2-Methoxy-ethyl)-[6-(4-piperidin-1-yl-but-1-ynyl)-pyridin-2-ylmethyl]-amine] is 5.8-fold higher in Ki: 5 nM for the first, 29 nM for the second. The first binds more tightly here.

Going from CC(C)N1CCN(C(=O)c2cccnc2NCCN2CCCCC2)CC1 [Example 17, (4-Isopropyl-piperazin-1-yl)-[2-(2-piperidin-1-yl-ethylamino)-pyridin-3-yl]-methanone] to CC(C)N1CCN(C(=O)c2ccnc(NCCN3CCCCC3)c2)CC1 [Example 16, (4-Isopropyl-piperazin-1-yl)-[2-(2-piperidin-1-yl-ethylamino)-pyridin-4-yl]-methanone], the Ki falls from 141 nM to 6 nM (24-fold).

With CC(C)N1CCN(C(=O)c2ccc(N3CCN(C(C)C)CC3)nc2)CC1 [Example 13, (4-Isopropyl-piperazin-1-yl)-[6-(4-isopropyl-piperazin-1-yl)-pyridin-3-yl]-methanone] the Ki was 4 nM.
